In patent US10150760B2, “Compounds for use in preparing heterocyclic triazole agonists of the APJ receptor” (AMGEN INC., priority 2016, dated 2018) one finds EC50 data, which are given here for seven substances.

human APJ receptor, sequence (P35414 whole entry): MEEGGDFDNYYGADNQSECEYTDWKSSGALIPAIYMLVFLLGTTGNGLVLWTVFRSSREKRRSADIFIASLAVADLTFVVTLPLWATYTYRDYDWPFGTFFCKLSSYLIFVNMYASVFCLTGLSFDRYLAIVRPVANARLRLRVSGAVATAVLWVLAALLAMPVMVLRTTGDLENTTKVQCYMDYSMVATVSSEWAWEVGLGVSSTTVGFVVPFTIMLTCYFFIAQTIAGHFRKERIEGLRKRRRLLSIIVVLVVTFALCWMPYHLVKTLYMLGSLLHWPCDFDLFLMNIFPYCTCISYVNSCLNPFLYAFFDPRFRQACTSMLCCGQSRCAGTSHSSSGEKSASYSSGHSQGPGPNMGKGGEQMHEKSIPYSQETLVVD

This test concerns the target human APJ receptor (Homo sapiens (Human), UniProt P35414). As to the kind of experiment: [35S]GTPγS binding assay on membranes from CHO cells stably expressing human APJ receptor. The test is classed as biochemical. Particulars: read-out: Activity hAPJ SPA EC50 IP. The essentials: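 Membranes from CHO cells stably expressing human APJ incubated with ligand, 0.2 nM [35S]GTPγS and WGA SPA beads in HEPES pH 7.5 with 5 mM MgCl2, 200 mM NaCl, 3 μM GDP, 90 min at RT. Nonspecific binding defined with 100 μM GTPγS; EC50 by non-linear regression.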
On to “(1R,2S)-1-(5-chloropyrimidin-2-yl)-1-methoxy-N-(5-((2S,5S)-5-methyltetrahydrofuran-2-yl)-4-tetrahydro-2H-pyran-4-yl)-4H-1,2,4-triazol-3-yl)propane-2-sulfonamide or (1R,2S)-1-(5-chloropyrimidin-2-yl)-1-methoxy-N-(5-((2R,5R)-5-methyltetrahydrofuran-2-yl)-4-(tetrahydro-2H-pyran-4-yl)-4H-1,2,4-triazol-3-yl)propane-2-sulfonamide [Example 225.0]”, for which the EC50 turned out to be 70 nM.

On to “(1R,2S)-1-(5-chloropyrimidin-2-yl)-N-(4-(2,6-dimethoxyphenyl)-5-((3aR,6aR)-hexahydro-3aH-cyclopenta[b]furan-3a-yl)-4H-1,2,4-triazol-3-yl)-1-methoxypropane-2-sulfonamide or (1R,2S)-1-(5-chloropyrimidin-2-yl)-N-(4-(2,6-dimethoxyphenyl)-5-((3aS,6aS)-hexahydro-3aH-cyclopenta[b]furan-3a-yl)-4H-1,2,4-triazol-3-yl)-1-methoxypropane-2-sulfonamide [Example 346.0]”, for which the EC50 was 780 nM.

For “(1R,2S)-1-(5-chloropyrimidin-2-yl)-N-(4-(2,6-dimethoxyphenyl)-5-((3aR,6aR)-hexahydro-3aH-cyclopenta[b]furan-3a-yl)-4H-1,2,4-triazol-3-yl)-1-methoxypropane-2-sulfonamide or (1R,2S)-1-(5-chloropyrimidin-2-yl)-N-(4-(2,6-dimethoxyphenyl)-5-((3aS,6aS)-hexahydro-3aH-cyclopenta[b]furan-3a-yl)-4H-1,2,4-triazol-3-yl)-1-methoxypropane-2-sulfonamide [Example 347.0]”, the EC50 is 360 nM.

For “(1R,2S)-1-(5-chloropyrimidin-2-yl)-N-(4-(2,6-dimethoxyphenyl)-5-((R)-1,1-dioxidotetrahydrothiophen-3-yl)-4H-1,2,4-triazol-3-yl)-1-methoxypropane-2-sulfonamide or (1R,2S)-1-(5-chloropyrimidin-2-yl)-N-(4-(2,6-dimethoxyphenyl)-5-((S)-1,1-dioxidotetrahydrothiophen-3-yl)-4H-1,2,4-triazol-3-yl)-1-methoxypropane-2-sulfonamide [Example 187.0]”, the EC50 amounted to 350 nM.

“(1R,2S)-1-(5-chloropyrimidin-2-yl)-N-(4-(2,6-dimethoxyphenyl)-5-((R)-1,1-dioxidotetrahydrothiophen-3-yl)-4H-1,2,4-triazol-3-yl)-1-methoxypropane-2-sulfonamide or (1R,2S)-1-(5-chloropyrimidin-2-yl)-N-(4-(2,6-dimethoxyphenyl)-5-((S)-1,1-dioxidotetrahydrothiophen-3-yl)-4H-1,2,4-triazol-3-yl)-1-methoxypropane-2-sulfonamide [Example 188.0]”: the EC50 was found to be 220 nM.

Take “(1R,2S)-1-(5-chloropyrimidin-2-yl)-N-(4-(2,6-dimethoxyphenyl)-5-((R)-1,4-dioxan-2-yl)-4H-1,2,4-triazol-3-yl)-1-methoxypropane-2-sulfonamide or (1R,2S)-1-(5-chloropyrimidin-2-yl)-N-(4-(2,6-dimethoxyphenyl)-5-((S)-1,4-dioxan-2-yl)-4H-1,2,4-triazol-3-yl)-1-methoxypropane-2-sulfonamide [Example 197.0]”: the EC50 was determined as 1 nM.

Consider “(1R,2S)-1-(5-chloropyrimidin-2-yl)-N-(4-(4,6-dimethoxypyrimidin-5-yl)-5-((R)-5,5-dimethyltetrahydrofuran-3-yl)-4H-1,2,4-triazol-3-yl)-1-methoxypropane-2-sulfonamide or (1R,2S)-1-(5-chloropyrimidin-2-yl)-N-(4-(4,6-dimethoxypyrimidin-5-yl)-5-((S)-5,5-dimethyltetrahydrofuran-3-yl)-4H-1,2,4-triazol-3-yl)-1-methoxypropane-2-sulfonamide [Example 315.0]”, for which the concentration giving a half-maximal response (EC50) is 85 nM.
